For one data set, the target named is T1, HIV protease (wt) (Human immunodeficiency virus type 1 group M subtype B, UniProt P04585).
T1 construct: over 45 of the 99 amino acids of the HIV protease monomer
The data set can be described thus: HIV protease inhibitory activity, wild type. In kind it is biochemical.

The target of the next data set is HIV protease Mutant 8 (Human immunodeficiency virus type 1, UniProt P04585). The data set can be described thus: HIV protease inhibitory activity, Mutant 8. The class given is biochemical. Conditions: Mutant 8 protease.
The subject of the next data set is HIV-1 Mutant 8. The data set can be described thus: Antiviral activity, in vitro drug sensitivity of HIV-1 isolates, Mutant 8. Conditions: Human immunodeficiency virus 1, read-out: Antiviral activity IC50 Mutant 8. In kind it is cell-based. How it is done:
(§1) In Vitro Drug Sensitivity of HIV-1 Laboratory Isolates to PIs
(§2) The sensitivities of HIV-1 isolates against compounds of the invention were determined as previously described with minor modifications (Shiraska et al., Proc. Natl. Acad. Sci. USA, 92, 2398-2402 (1995)).

In a further data set the test system is HIV-1 Mutant 9. The data set can be described thus: Antiviral activity, in vitro drug sensitivity of HIV-1 isolates, Mutant 9. The class given is cell-based. Conditions: Human immunodeficiency virus 1, read-out: Antiviral activity IC50 Mutant 9. The procedure: as §1, §2
In a further data set the target is HIV protease Mutant 9 (Human immunodeficiency virus type 1, UniProt P04585). The data set can be described thus: HIV protease inhibitory activity, Mutant 9. As to conditions: Mutant 9 protease. The class given is biochemical.
A further data set has as its system HIV-1 WT. The data set can be described thus: Antiviral activity, in vitro drug sensitivity of HIV-1 isolates, WT. In kind it is cell-based. Conditions: Human immunodeficiency virus 1. How it is done: as §1, §2
Data set [1] is described as follows: In vivo bioavailability, rat. Conditions: 20 mg/kg p.o.
For data set [2] the following is noted: rat, oral administration; Miller et al., Bioorg Med Chem Lett. 1788-94 (2006); cited from earlier work.

The values that follow come from patent publication US8389571B2, “Benzofuran derived HIV protease inhibitors” (Sequoia Pharmaceuticals, Inc., priority 2007, dated 2013).

The term Ki denotes a dissociation constant, usually derived from enzyme kinetics or from competition with a known ligand. Low readings indicate higher affinity, high ones lower affinity. Usually IC50 stands for the midpoint of a concentration-inhibition curve. As a reminder, the Cmax is the peak of the concentration-time curve. The term Tmax denotes the time from dosing to the highest level. As usually defined, the bioavailability is dose-corrected exposure relative to a reference, in per cent.

Regarding `Cc1nc(COc2ccc(C[C@H](NC(=O)O[C@H]3CO[C@H]4OCC[C@H]43)[C@H](O)CN(CC(C)C)S(=O)(=O)c3ccc4occc4c3)cc2)cs1` [Compound D], the Ki at HIV protease (wt) is less than 0.05 nM; at HIV protease Mutant 8, less than 0.05 nM; at HIV protease Mutant 9 it was 0.055 nM. Further, the IC50 in the data set with HIV-1 Mutant 8 was determined as 4.2 nM; in the data set with HIV-1 Mutant 9 it was 32 nM; in the data set on HIV-1 WT, 1.4 nM. For the same compound, the “AUC (0-12)” value in data set [1] turned out to be 11 ugxh/mL. This compound showed a Cmax in data set [1] (in vivo, po) of 3.51 µM. In addition, in data set [1] (in vivo, po), the Tmax came to 39.6 min. This compound also had a bioavailability in data set [1] (in vivo, po) of 92%.

In the case of `Cc1nc(COc2ccc(C[C@H](NC(=O)O[C@H]3CO[C@H]4OCC[C@H]43)[C@H](O)CN(CC(C)C)S(=O)(=O)c3ccc4c(c3)OCO4)cc2)cs1` [GW0385, reference compound], the Ki at HIV protease (wt) is 0.1 nM; on HIV protease Mutant 8 it was less than 0.05 nM; at HIV protease Mutant 9, 0.13 nM. For the same compound, the figures for the half-inhibitory concentration (IC50) in the data set on HIV-1 Mutant 8, in the data set with HIV-1 Mutant 9 and in the data set on HIV-1 WT were 3.2 nM, 42 nM and 0.8 nM, respectively. Besides, in data set [2], the “% F” value is recorded as 10%.
